The source of these data is US20060229264A1, “Crystalline 6-n-pyridylmethylaminoindolocarbazole compounds” (priority 2003, published 2006).

Assay type in all cases: physicochemical
The nature of data set [1]: Solid thermostability test (accelerated test at 80° C. in tightly closed vials). The conditions noted are these: after 4 weeks. Here is the method: A solid thermostability test of amorphous free bases and crystals of the compounds represented by the formula (II), the formula (III) and the formula (IV) is shown in Table 1. This test is an accelerated test conducted at 80° C. in tightly closed vials.

The nature of data set [2]: Solid light stability test (25° C., 2000 lux light source, tight-closed vials). To be noted: after 4 weeks. The method, then:
A solid light stability test of amorphous free bases and crystals of the compounds represented by the formula (II), the formula (III) and the formula (IV) is shown in Table 2. This test was carried out at 25° C. under the light source of 2000 luxes in tight-closed vials.

Data set [3] is described as follows: Test on solubility in water. From the text: Solubilities of crystals of intramolecular salts of the compounds of the formulae (II), (III) and (IV) and the corresponding amorphous free bases in water are shown below.
Data set [4] can be described thus: Hygroscopicity test (moisture sorption analyzer). To be noted: for Changes in weight under dehumidifying condition (desorption) compared with humidifying condition: desorption versus adsorption of water, FIG. 3 / FIG. 4; for Weight change rate upon humidification: relative humidity changed from 30% to 75% (adsorption process of water). From the text:
Comparing the hygroscopicity of amorphous free base of the compound represented by the above formula (II) with that of crystals of hydrochloride of the same compound, the weight of the amorphous free base increased by 7.6% under the moisturized condition (adsorption process of water), while the weight of the crystal increased as slightly as 1.5% in the case where the comparison was done changing the humidity from 30% to 75% which is the humidity for usual preservation. Thus, the weight change rate of the amorphous free base of the compound represented by the formula (II) upon humidification (relative humidity changes from 30% to 75%) was 7.6%. On the other hand, the weight change rate of the crystals of hydrochloride of the compound represented by the formula (II) upon humidification (relative humidity changes from 30% to 75%) was 1.5%, therefore, the influence by humidification was very little.
Hygroscopicity test was conducted by IGAsorp Moisture Sorption Analyzer, manufacture by Hiden Analytical Limited (refer to FIG. 3).

Regarding `O=C1c2c(c3c4ccc(O)cc4n(C4OC(CO)C(O)C(O)C4O)c3c3[nH]c4cc(O)ccc4c23)C(=O)N1NCc1cccc(CO)n1` (centres unmarked), the “Residual Rate (thermostability of solid)” value in data set [1] amounted to 66.6%. In data set [2], the “Residual Rate (light stability of solid)” value is reported as 78.9%. In addition, the solubility (in general, the concentration that dissolves in the medium under given conditions) in data set [3] is ≤ 1 µg/mL.

Turning to `O=C1c2c(c3c4ccc(O)cc4n(C4OC(CO)C(O)C(O)C4O)c3c3[nH]c4cc(O)ccc4c23)C(=O)N1NCc1ccncc1` (centres unmarked), in data set [3], the solubility was ≤ 1 µg/mL.

Consider `Cl.O=C1c2c(c3c4ccc(O)cc4n(C4OC(CO)C(O)C(O)C4O)c3c3[nH]c4cc(O)ccc4c23)C(=O)N1NCc1ccncc1CO` (centres unmarked), for which, in data set [4], the “Changes in weight under dehumidifying condition (desorption) compared with humidifying condition” value (shortened to “Changes in weight”) is recorded as “nearly the same” and the “Weight change rate upon humidification” value came to 1.5%. The “Residual Rate (light stability of solid)” value in data set [2] came to 94.3%. The same compound displayed a solubility in data set [3] of 10000 to 50000 µg/mL.

As for `Cl.O=C1c2c(c3c4ccc(O)cc4n(C4OC(CO)C(O)C(O)C4O)c3c3[nH]c4cc(O)ccc4c23)C(=O)N1NCc1ccncc1` (centres unmarked), in data set [4], the “Changes in weight” value is on record as “nearly the same” and the “Weight change rate upon humidification” value was found to be 0.6%. Further, in data set [1], the “Residual Rate (thermostability of solid)” value amounted to 98.4%. For the same compound, the “Residual Rate (light stability of solid)” value in data set [2] was 95.8%. In data set [3], this compound came in with a solubility of 10000 to 50000 µg/mL.

`O=C1c2c(c3c4ccc(O)cc4n(C4OC(CO)C(O)C(O)C4O)c3c3[nH]c4cc(O)ccc4c23)C(=O)N1NCc1ccncc1CO` (centres unmarked) [Amorphous free base of the compound of the formula (II)]: in data set [4], the “Changes in weight” value is “greatly different” and the “Weight change rate upon humidification” value is 7.6%. Also, the “Residual Rate (thermostability of solid)” value in data set [1] came to 87.8%. For the same compound, the “Residual Rate (light stability of solid)” value in data set [2] turned out to be 89.5%. Further, in data set [3] (listed as Amorphous free base of the compound represented by the formula (II)), the Solubility in water result is “not more than 0.001 mg/mL”.

With `O=C1c2c(c3c4ccc(O)cc4n(C4OC(CO)C(O)C(O)C4O)c3c3[nH]c4cc(O)ccc4c23)C(=O)N1NCc1ccncc1` (centres unmarked) [Amorphous free base of the compound of the formula (IV)], in data set [4], the “Changes in weight” value is “significantly different” and the “Weight change rate upon humidification” value came to 2.8%. In addition, in data set [1], the “Residual Rate (thermostability of solid)” value worked out at 82.9%. For the same compound, the “Residual Rate (light stability of solid)” value in data set [2] turned out to be 84.6%.

For the compound `O=C1c2c(c3c4ccc(O)cc4n(C4OC(CO)C(O)C(O)C4O)c3c3[nH]c4cc(O)ccc4c23)C(=O)N1NCc1ccncc1CO` (centres unmarked) [Crystals of free base of the compound of the formula (II)], the “Residual Rate (light stability of solid)” value in data set [2] was 95.6%.

Take `O=C1c2c(c3c4ccc(O)cc4n(C4OC(CO)C(O)C(O)C4O)c3c3[nH]c4cc(O)ccc4c23)C(=O)N1NCc1ccncc1` (centres unmarked) [Crystals of free base of the compound of the formula (IV)]: the “Residual Rate (thermostability of solid)” value in data set [1] is 99.7%. The “Residual Rate (light stability of solid)” value in data set [2] was determined as 99.5%.

On to `O=C1c2c(c3c4ccc(O)cc4n(C4OC(CO)C(O)C(O)C4O)c3c3[nH]c4cc(O)ccc4c23)C(=O)N1NCc1ccncc1CO` (centres unmarked) [Crystals of methanesulfonate of the compound of the formula ], for which the “Residual Rate (thermostability of solid)” value in data set [1] is 99.1%.
